Results on 43 compounds are retold here after ChEMBL document CHEMBL1806382, “Special ergolines efficiently inhibit the chemokine receptor CXCR3 in blood” (Bioorg Med Chem Lett, 2011).

A value given as a limit tells only on which side of the number the result lay.

In test [1] the target is T1, C-X-C chemokine receptor type 3 (Homo sapiens, UniProt P49682).
T1 sequence (P49682 whole entry): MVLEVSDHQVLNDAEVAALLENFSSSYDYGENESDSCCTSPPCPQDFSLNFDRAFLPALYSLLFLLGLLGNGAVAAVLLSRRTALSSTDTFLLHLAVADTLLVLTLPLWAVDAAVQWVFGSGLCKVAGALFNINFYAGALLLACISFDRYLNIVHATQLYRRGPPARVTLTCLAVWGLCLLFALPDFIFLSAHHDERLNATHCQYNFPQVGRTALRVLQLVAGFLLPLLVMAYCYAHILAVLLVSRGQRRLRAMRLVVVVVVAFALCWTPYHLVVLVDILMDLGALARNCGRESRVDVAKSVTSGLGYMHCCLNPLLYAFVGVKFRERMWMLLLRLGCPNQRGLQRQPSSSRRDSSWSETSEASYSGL
Nature of the test: Displacement of radiolabeled CXCL11 from human CXCR3 expressed in CHO cells by scintillation proximity assay. It counts as cell-based. (In a scintillation proximity assay essentially only radioactivity close to the scintillant gives light.)

In test [2] the target is T1, C-X-C chemokine receptor type 3. Kind of test: Antagonist activity at human CXCR3 expressed in mouse L1.2 cells assessed as inhibition of ITAC-induced calcium mobilization by FLIPR assay. It counts as functional, cell-based.
Test [3] concerns the target T2, C-X-C chemokine receptor type 3 (Mus musculus, UniProt O88410).
T2 sequence (O88410 whole entry): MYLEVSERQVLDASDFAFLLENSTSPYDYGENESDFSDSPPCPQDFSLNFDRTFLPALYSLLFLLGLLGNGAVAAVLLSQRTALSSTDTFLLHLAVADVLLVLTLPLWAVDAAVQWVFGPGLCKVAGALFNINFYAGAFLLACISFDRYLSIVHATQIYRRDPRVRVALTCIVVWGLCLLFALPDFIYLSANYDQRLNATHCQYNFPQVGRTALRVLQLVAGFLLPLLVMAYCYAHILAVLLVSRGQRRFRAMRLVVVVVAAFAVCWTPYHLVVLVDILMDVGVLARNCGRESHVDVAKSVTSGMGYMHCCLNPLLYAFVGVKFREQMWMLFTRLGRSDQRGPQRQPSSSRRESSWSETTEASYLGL
Kind of test: Antagonist activity at mouse CXCR3 expressed in mouse L1.2 cells assessed as inhibition of ITAC-induced calcium mobilization by FLIPR assay. It counts as functional, cell-based.

With `NC(=O)[C@@H]1C=C2c3cccc4[nH]cc(c34)C[C@H]2N(C(=O)Nc2ccccc2)C1`, the IC50 – broadly, the concentration that inhibits the measured activity by half – in test [1] is more than 10 µM.

On to `CCNC(=O)[C@@H]1C=C2c3cccc4[nH]cc(c34)C[C@H]2N(C(=O)Nc2ccccc2)C1`, for which the IC50 was found to be 0.071 µM in test [2], 0.09 µM in test [3] and 0.379 µM in test [1].

On to `CN(C)C(=O)[C@@H]1C=C2c3cccc4[nH]cc(c34)C[C@H]2N(C(=O)Nc2ccccc2)C1`, for which the results for the IC50 in test [2], in test [3] and in test [1] were 0.01 µM, 0.01 µM and 0.028 µM, respectively.

Turning to `COCCN(CCOC)C(=O)[C@@H]1C=C2c3cccc4[nH]cc(c34)C[C@H]2N(C(=O)Nc2ccccc2)C1`, the results for the IC50 in test [2], in test [3] and in test [1] were 0.187 µM, 0.437 µM and 0.305 µM, respectively.

Take `CN(CCO)C(=O)[C@@H]1C=C2c3cccc4[nH]cc(c34)C[C@H]2N(C(=O)Nc2ccccc2)C1`: the IC50 in test [2] is 0.012 µM; in test [3], 0.009 µM; in test [1], 0.066 µM.

For `O=C([C@@H]1C=C2c3cccc4[nH]cc(c34)C[C@H]2N(C(=O)Nc2ccccc2)C1)N1CCC1`, in test [3], the IC50 stood at 0.014 µM.

For `O=C([C@@H]1C=C2c3cccc4[nH]cc(c34)C[C@H]2N(C(=O)Nc2ccccc2)C1)N1CCCCCC1`, the results for the IC50 in test [2], in test [3] and in test [1] were 0.014 µM, 0.013 µM and 0.081 µM, respectively.

On to `O=C([C@@H]1C=C2c3cccc4[nH]cc(c34)C[C@H]2N(C(=O)Nc2ccccc2)C1)N1CC=CC1`, for which the half-maximal inhibitory concentration (IC50) in test [2] was determined as 0.003 µM; in test [3], 0.003 µM; in test [1], 0.017 µM.

Regarding `O=C([C@@H]1C=C2c3cccc4[nH]cc(c34)C[C@H]2N(C(=O)Nc2ccccc2)C1)N1C=CCCC1`, the IC50 in test [2] was found to be 0.004 µM; in test [3] it was 0.002 µM; in test [1] it was 0.012 µM.

Regarding `O=C([C@@H]1C=C2c3cccc4[nH]cc(c34)C[C@H]2N(C(=O)Nc2ccccc2)C1)N1CCNCC1`, the IC50 in test [2] turned out to be 0.457 µM; in test [3], 1.73 µM; in test [1] it was 1.01 µM.

With `O=C1CN(C(=O)[C@@H]2C=C3c4cccc5[nH]cc(c45)C[C@H]3N(C(=O)Nc3ccccc3)C2)CCN1`, the IC50 in test [2] came out at 0.074 µM; in test [1], 0.255 µM.

In the case of `CN1CCN(C(=O)[C@@H]2C=C3c4cccc5[nH]cc(c45)C[C@H]3N(C(=O)Nc3ccccc3)C2)CC1`, the IC50 came to 0.083 µM in test [2], 0.112 µM in test [3] and 0.131 µM in test [1].

Regarding `CC(=O)N1CCN(C(=O)[C@@H]2C=C3c4cccc5[nH]cc(c45)C[C@H]3N(C(=O)Nc3ccccc3)C2)CC1`, the IC50 came to 0.286 µM in test [2] and 0.825 µM in test [1].

On to `O=C([C@@H]1C=C2c3cccc4[nH]cc(c34)C[C@H]2N(C(=O)Nc2ccccc2)C1)N1CCOCC1`, for which the IC50 in test [3] stood at 0.012 µM; in test [1] it was 0.022 µM.

With `CC1CN(C(=O)[C@@H]2C=C3c4cccc5[nH]cc(c45)C[C@H]3N(C(=O)Nc3ccccc3)C2)CC(C)O1` (some centres not stated), the IC50 stood at 0.216 µM in test [2] and 1.16 µM in test [1].

Take `O=C([C@@H]1C=C2c3cccc4[nH]cc(c34)C[C@H]2N(C(=O)Nc2ccccc2)C1)N1CCS(=O)(=O)CC1`: the IC50 in test [2] is 0.067 µM; in test [3], 0.534 µM; in test [1], 0.4 µM.

For the compound `O=C([C@@H]1C=C2c3cccc4[nH]cc(c34)C[C@H]2N(C(=O)Nc2ccccc2)C1)N1CC[C@@H](O)[C@@H](O)C1`, the figures for the IC50 in test [2], in test [3] and in test [1] were 0.2 µM, 0.04 µM and 0.05 µM, respectively.

`O=C([C@@H]1C=C2c3cccc4[nH]cc(c34)C[C@H]2N(C(=O)Nc2ccccc2)C1)N1CC[C@@H](O)C1`: the figures for the IC50 in test [2] and in test [1] were 0.022 µM and 0.061 µM, respectively.

`O=C([C@@H]1C=C2c3cccc4[nH]cc(c34)C[C@H]2N(C(=O)Nc2ccccc2)C1)N1CC[C@H](O)C1`: the IC50 in test [2] is 0.012 µM; in test [3] it was 0.019 µM; in test [1] it was 0.047 µM.

In the case of `O=C([C@@H]1C=C2c3cccc4[nH]cc(c34)C[C@H]2N(C(=O)Nc2ccccc2F)C1)N1CCCC1`, in test [3], the IC50 is 0.016 µM.

In the case of `O=C([C@@H]1C=C2c3cccc4[nH]cc(c34)C[C@H]2N(C(=O)Nc2cccc(F)c2)C1)N1CCCC1`, the IC50 worked out at 0.003 µM in test [2], 0.002 µM in test [3] and 0.004 µM in test [1].

For the compound `O=C([C@@H]1C=C2c3cccc4[nH]cc(c34)C[C@H]2N(C(=O)Nc2ccc(F)cc2)C1)N1CCCC1`, the values for the IC50 in test [2], in test [3] and in test [1] were 0.004 µM, 0.004 µM and 0.007 µM, respectively.

Consider `COc1ccccc1NC(=O)N1C[C@H](C(=O)N2CCCC2)C=C2c3cccc4[nH]cc(c34)C[C@H]21`, for which the IC50 in test [2] came to 0.06 µM; in test [1], 0.523 µM.

Take `COc1cccc(NC(=O)N2C[C@H](C(=O)N3CCCC3)C=C3c4cccc5[nH]cc(c45)C[C@H]32)c1`: the IC50 was 0.027 µM in test [2], 0.074 µM in test [3] and 0.278 µM in test [1].

In the case of `COc1ccc(NC(=O)N2C[C@H](C(=O)N3CCCC3)C=C3c4cccc5[nH]cc(c45)C[C@H]32)cc1`, the IC50 in test [2] was found to be 0.089 µM; in test [1], 0.393 µM.

Regarding `CN(C)Cc1ccccc1NC(=O)N1C[C@H](C(=O)N2CCCC2)C=C2c3cccc4[nH]cc(c34)C[C@H]21`, in test [2], the IC50 was more than 10 µM.

On to `CN(C)Cc1cccc(NC(=O)N2C[C@H](C(=O)N3CCCC3)C=C3c4cccc5[nH]cc(c45)C[C@H]32)c1`, for which the IC50 in test [2] turned out to be 6.2 µM.

`CN(C)Cc1ccc(NC(=O)N2C[C@H](C(=O)N3CCCC3)C=C3c4cccc5[nH]cc(c45)C[C@H]32)cc1`: the IC50 in test [2] is 5.4 µM.

As for `O=C([C@@H]1C=C2c3cccc4[nH]cc(c34)C[C@H]2N(C(=O)Nc2ccsc2)C1)N1CCCC1`, the IC50 in test [2] came out at 0.007 µM; in test [3], 0.011 µM; in test [1], 0.026 µM.

Take `O=C([C@@H]1C=C2c3cccc4[nH]cc(c34)C[C@H]2N(C(=O)Nc2cccs2)C1)N1CCCC1`: the IC50 in test [2] turned out to be 0.008 µM; in test [3], 0.01 µM; in test [1], 0.037 µM.

For the compound `O=C([C@@H]1C=C2c3cccc4[nH]cc(c34)C[C@H]2N(C(=O)Nc2cc[nH]c2)C1)N1CCCC1`, the IC50 in test [2] and in test [1] was more than 10 µM each time.

For `O=C([C@@H]1C=C2c3cccc4[nH]cc(c34)C[C@H]2N(C(=O)NC2CCCC2)C1)N1CCCC1`, the IC50 in test [2] stood at 0.073 µM; in test [3] it was 0.081 µM; in test [1] it was 0.16 µM.

With `O=C([C@@H]1C=C2c3cccc4[nH]cc(c34)C[C@H]2N(C(=O)NC2CCCCC2)C1)N1CCCC1`, the IC50 was determined as 0.011 µM in test [2], 0.031 µM in test [3] and 0.024 µM in test [1].

`O=C([C@@H]1C=C2c3cccc4[nH]cc(c34)C[C@H]2N(C(=O)NC2CCCCCC2)C1)N1CCCC1`: the IC50 in test [2] was determined as 0.014 µM; in test [3], 0.016 µM; in test [1], 0.028 µM.

As to `O=C([C@@H]1C=C2c3cccc4[nH]cc(c34)C[C@H]2N(C(=O)NC2CCC(O)CC2)C1)N1CCCC1` (some centres not stated), the IC50 was 9.48 µM in test [2] and more than 10 µM in test [1].

`CNC(=O)N1C[C@H](C(=O)N2CCCC2)C=C2c3cccc4[nH]cc(c34)C[C@H]21`: the IC50 in test [2] and in test [1] was more than 10 µM each time.

With `CN(C)CCCNC(=O)N1C[C@H](C(=O)N2CCCC2)C=C2c3cccc4[nH]cc(c34)C[C@H]21`, the IC50 in test [2] was more than 10 µM.

On to `O=C([C@@H]1C=C2c3cccc4[nH]cc(c34)C[C@H]2N(C(=O)NCc2ccccc2)C1)N1CCCC1`, for which the IC50 in test [2] and in test [1] was 2.2 µM each time.

In the case of `O=C([C@@H]1C=C2c3cccc4[nH]cc(c34)C[C@H]2N(C(=O)NCc2ccco2)C1)N1CCCC1`, the IC50 amounted to 10 µM in test [2] and 2.6 µM in test [1].

Take `O=C([C@@H]1C=C2c3cccc4[nH]cc(c34)C[C@H]2N(C(=O)c2ccccc2)C1)N1CCCC1`: the IC50 is 6.12 µM in test [2] and more than 10 µM in test [1].

Consider `O=C([C@@H]1C=C2c3cccc4[nH]cc(c34)C[C@H]2N(C(=O)Cc2ccccc2)C1)N1CCCC1`, for which the IC50 in test [2] turned out to be 0.17 µM; in test [1], 0.427 µM.

As for `CC(C)OC(=O)Cn1cc2c3c(cccc31)C1=C[C@@H](C(=O)N3CCCC3)CN(C(=O)Nc3ccccc3)[C@@H]1C2`, the IC50 in test [3] amounted to 0.053 µM.

As to `CCN(CC)C(=O)[C@@H]1C=C2c3cccc4[nH]cc(c34)C[C@H]2N(C(=O)Nc2ccccc2)C1`, in test [1], the IC50 stood at 0.051 µM.
